Results published in ChEMBL document CHEMBL1126087, “(E)-1,3-dialkyl-7-methyl-8-(3,4,5-trimethoxystyryl)xanthines: potent and selective adenosine A2 antagonists” (J Med Chem, 1992).

What was measured:
[1] = species: Cavia porcellus
[2] = biological target: T1, Adenosine receptor A1 (Cavia porcellus, UniProt P47745)
T1 sequence (P47745 whole entry): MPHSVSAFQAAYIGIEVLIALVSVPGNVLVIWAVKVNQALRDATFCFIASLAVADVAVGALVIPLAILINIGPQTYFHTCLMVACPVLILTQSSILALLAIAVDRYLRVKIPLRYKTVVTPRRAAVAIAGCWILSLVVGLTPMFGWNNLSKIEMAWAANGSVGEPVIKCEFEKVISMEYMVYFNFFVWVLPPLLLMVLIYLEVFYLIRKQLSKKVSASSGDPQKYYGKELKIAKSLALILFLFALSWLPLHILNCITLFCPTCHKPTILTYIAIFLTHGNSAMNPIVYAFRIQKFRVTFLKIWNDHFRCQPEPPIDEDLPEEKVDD
Description: Binding affinity against adenosine A1 receptor from guinea pig forebrain membranes, using N6-[3H]cyclohexyladenosine as radioligand.

[3] = biological target: Adenosine A2 receptor (Rattus norvegicus, UniProt P29276+P30543)
[4] = biological target: T2, Adenosine receptor A1 (Rattus norvegicus, UniProt P25099); format: cell membranes, Membrane
T2 sequence (P25099 whole entry): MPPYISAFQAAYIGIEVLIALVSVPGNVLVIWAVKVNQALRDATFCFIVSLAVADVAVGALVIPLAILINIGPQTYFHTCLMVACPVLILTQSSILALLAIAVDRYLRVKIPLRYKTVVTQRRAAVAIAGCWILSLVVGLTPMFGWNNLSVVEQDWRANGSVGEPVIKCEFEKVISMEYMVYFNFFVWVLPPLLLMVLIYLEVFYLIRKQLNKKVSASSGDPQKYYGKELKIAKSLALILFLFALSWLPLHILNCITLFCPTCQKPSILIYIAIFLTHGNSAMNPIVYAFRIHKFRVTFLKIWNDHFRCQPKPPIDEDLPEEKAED

[5] = Water solubility of the compound; format: ADME; conditions: read-out: S
[6] = biological target: T2, Adenosine receptor A1
[7] = biological target: Adenosine receptor A2a (Homo sapiens) (UniProt P29274)
Chain of Adenosine receptor A2a (Homo sapiens) (P29274 whole entry, looked up): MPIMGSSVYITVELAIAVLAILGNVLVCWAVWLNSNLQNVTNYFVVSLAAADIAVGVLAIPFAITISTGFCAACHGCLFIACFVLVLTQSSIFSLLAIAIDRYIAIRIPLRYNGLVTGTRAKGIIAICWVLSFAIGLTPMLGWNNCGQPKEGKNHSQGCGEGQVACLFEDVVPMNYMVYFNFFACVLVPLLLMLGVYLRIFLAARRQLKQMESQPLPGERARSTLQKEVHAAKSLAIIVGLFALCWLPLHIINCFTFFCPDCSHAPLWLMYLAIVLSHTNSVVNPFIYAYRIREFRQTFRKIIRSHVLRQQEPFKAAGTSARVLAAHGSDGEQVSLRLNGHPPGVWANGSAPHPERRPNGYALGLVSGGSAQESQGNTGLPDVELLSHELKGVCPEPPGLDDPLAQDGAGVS

Structure (SMILES)	Ki ratio [1]	Ki [2]	Ki [3]	other results
CCCCn1c(=O)c2c(nc(/C=C/c3cc(OC)c(OC)c(OC)c3)n2C)n(CCCC)c1=O	44	2300 nM	52 nM	–
CCCn1c(=O)c2nc(CCc3ccccc3)[nH]c2n(CCC)c1=O	0.09	560 nM	6200 nM	–
COc1cc(/C=C/c2nc3c(=O)n(C)c(=O)n(C)c3[nH]2)cc(OC)c1OC	–	> 100000 nM	–	–
C=CCn1c(=O)c2nc(/C=C/c3cc(OC)c(OC)c(OC)c3)[nH]c2n(CC=C)c1=O	> 2100	> 100000 nM	47 nM	–
CCCn1c(=O)c2nc(/C=C/c3ccc(Cl)c(Cl)c3)[nH]c2n(CCC)c1=O	–	> 100000 nM	> 100000 nM	–
CCCn1c(=O)c2c(nc(/C=C/c3ccc(OC)c(OC)c3)n2C)n(CCC)c1=O	–	–	–	solubility [5]: < 10 µg/mL; Ki [6]: 430 nM
CCCn1c(=O)c2c(nc(/C(C)=C/c3ccccc3)n2C)n(CCC)c1=O	–	> 10000 nM	> 10000 nM	–
CCCn1c(=O)c2nc(-c3ccc(S(=O)(=O)N(C)CCN(C)C)cc3)[nH]c2n(CCC)c1=O	5.4	–	–	–
CCCn1c(=O)c2c(nc(/C=C/c3ccc(OC)cc3)n2C)n(CCC)c1=O	78	1400 nM	18 nM	Ki [6]: 340 nM
C=CCn1c(=O)c2c(nc(/C=C/c3cc(OC)c(OC)c(OC)c3)n2C)n(CC=C)c1=O	–	> 100000 nM	–	–
CCCn1c(=O)c2c(nc(CCc3ccccc3)n2C)n(CCC)c1=O	0.59	1300 nM	2200 nM	–
CCCn1c(=O)c2nc(/C(C)=C/c3ccccc3)[nH]c2n(CCC)c1=O	–	> 100000 nM	> 10000 nM	–
CCCn1c(=O)c2c(nc(C3CCCC3)n2C)n(CCC)c1=O	0.26	8100 nM	> 100000 nM	Kb [7]: 220 nM
CCCn1c(=O)c2c(nc(/C=C/c3ccccc3)n2C)n(CCC)c1=O	48	720 nM	15 nM	Ki [6]: 220 nM

Second part, led by results:

Ki ratio [1]	Ki [2]	Ki [3]	Structure (SMILES)	other results
–	1800 nM	26 nM	CCCn1c(=O)c2nc(/C=C/c3ccccc3)[nH]c2n(CCC)c1=O	–
–	1300 nM	> 10000 nM	CCCn1c(=O)c2c(nc(CCC3CCCC3)n2C)n(CCC)c1=O	–
–	140 nM	–	CCCn1c(=O)c2[nH]c(-c3ccc(S(=O)(=O)N(C)CCN(C)C)cc3)nc2n(CCC)c1=O	Ki [4]: 13.9 nM
–	> 100000 nM	110 nM	CCCn1c(=O)c2nc(/C=C/c3ccc(OC)cc3)[nH]c2n(CCC)c1=O	–
1.9	3500 nM	1800 nM	CCCn1c(=O)c2c(nc(C/C=C/c3ccccc3)n2C)n(CCC)c1=O	–
–	> 100000 nM	> 100000 nM	CCCn1c(=O)c2nc(/C=C/c3ccc(Cl)cc3)[nH]c2n(CCC)c1=O	–
150	2100 nM	14 nM	CCCn1c(=O)c2c(nc(/C=C/c3cc(OC)c(OC)c(OC)c3)n2C)n(CCC)c1=O	Ki [6]: 1100 nM
0.053	–	6000 nM	CCCn1c(=O)c2nc(CCC3CCCC3)[nH]c2n(CCC)c1=O	–
0.37	820 nM	2200 nM	CCCn1c(=O)[nH]c(=O)c2[nH]c(/C=C/c3cc(OC)c(OC)c(OC)c3)nc21	–
–	> 100000 nM	–	COc1cc(/C=C/c2nc3c(c(=O)n(C)c(=O)n3C)n2C)cc(OC)c1OC	–
–	> 100000 nM	7500 nM	CCCn1c(=O)c2c(nc(/C=C/c3ccc(Cl)c(Cl)c3)n2C)n(CCC)c1=O	–
–	> 10000 nM	49 nM	CCCn1c(=O)c2c(nc(/C=C/c3ccc(Cl)cc3)n2C)n(CCC)c1=O	–
–	1700 nM	–	CCCn1c(=O)c2nc(/C=C/c3ccc(OC)c(OC)c3)[nH]c2n(CCC)c1=O	–
15	1400 nM	93 nM	CCCCn1c(=O)c2nc(/C=C/c3cc(OC)c(OC)c(OC)c3)[nH]c2n(CCCC)c1=O	–
–	320 nM	–	CCCn1c(=O)c2[nH]c(CCC3CCCC3)nc2n(CCC)c1=O	–
0.54	870 nM	1600 nM	CCCn1c(=O)c2nc(C/C=C/c3ccccc3)[nH]c2n(CCC)c1=O	–
